Test results reported in ChEMBL document CHEMBL1201862, “PubChem BioAssay data set” (2004).
The source made the active and inactive calls.

Assays:
[1] = Luminescence-based cell-based high throughput dose response assay to identify activators of the DAF-12 from the parasite S. stercoralis (ssDAF-12).; format: functional
[2] = molecular target: T1, Oxysterols receptor LXR-beta (Homo sapiens, UniProt P55055); assay: LXR agonists, Gal4 luciferase reporter, dose response, counter-screen for ssDAF-12 agonist project, cell-based, luminescence, HEK293, S. stercoralis campaign (AID 720737); format: functional; settings: read-out: IC50 (the source's name)
T1 sequence (P55055 whole entry): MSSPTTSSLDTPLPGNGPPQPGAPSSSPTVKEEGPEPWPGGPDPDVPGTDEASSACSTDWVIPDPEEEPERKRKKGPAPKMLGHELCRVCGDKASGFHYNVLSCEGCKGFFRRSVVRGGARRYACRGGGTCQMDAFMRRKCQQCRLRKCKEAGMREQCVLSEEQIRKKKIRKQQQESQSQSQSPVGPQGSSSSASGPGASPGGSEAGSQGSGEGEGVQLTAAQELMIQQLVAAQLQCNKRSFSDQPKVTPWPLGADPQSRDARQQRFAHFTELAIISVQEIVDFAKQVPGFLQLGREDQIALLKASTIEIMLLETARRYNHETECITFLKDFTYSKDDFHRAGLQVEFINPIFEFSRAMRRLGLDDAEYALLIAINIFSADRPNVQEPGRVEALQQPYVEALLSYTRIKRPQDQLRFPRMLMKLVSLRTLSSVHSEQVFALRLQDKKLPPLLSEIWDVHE

[3] = Glucagon-like peptide 1 release potency, NCI-H716 cell line, dose-response, half-maximal inhibitory concentration (AID 1117344); format: functional, cell-based
[4] = molecular target: T2, Rac GTPase-activating protein 1 (Homo sapiens, UniProt Q9H0H5); assay: MgcRacGAP GTPase-activating activity inhibitors, confirmation, biochemical, ADP Hunter fluorescence, primary and confirmatory (AID 624330); format: functional
T2 sequence (Q9H0H5 whole entry): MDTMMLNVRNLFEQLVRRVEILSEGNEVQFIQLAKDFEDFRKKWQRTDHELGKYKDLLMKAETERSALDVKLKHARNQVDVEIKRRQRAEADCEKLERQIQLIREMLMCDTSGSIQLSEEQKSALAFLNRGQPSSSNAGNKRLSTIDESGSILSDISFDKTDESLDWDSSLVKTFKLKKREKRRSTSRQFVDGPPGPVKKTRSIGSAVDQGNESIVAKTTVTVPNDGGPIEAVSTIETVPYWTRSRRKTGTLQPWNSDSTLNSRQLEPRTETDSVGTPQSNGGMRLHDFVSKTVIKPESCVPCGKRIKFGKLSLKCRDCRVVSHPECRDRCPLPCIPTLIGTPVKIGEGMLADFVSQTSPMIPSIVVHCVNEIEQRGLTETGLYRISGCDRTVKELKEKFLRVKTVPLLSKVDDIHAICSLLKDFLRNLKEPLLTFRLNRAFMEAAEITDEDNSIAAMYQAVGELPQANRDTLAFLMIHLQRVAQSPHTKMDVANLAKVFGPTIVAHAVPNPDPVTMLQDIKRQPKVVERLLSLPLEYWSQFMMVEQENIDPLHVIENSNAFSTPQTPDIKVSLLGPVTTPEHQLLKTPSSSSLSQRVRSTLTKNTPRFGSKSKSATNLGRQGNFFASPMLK

[5] = molecular target: Heat shock protein HSP 90-alpha (Homo sapiens, UniProt P07900); format: functional, organism-based
[6] = HCT116 cell viability decrease, GSK3B pretreatment – CellTiter-Glo, IC50, dose response (AID 1117339); format: functional; settings: HCT-116
Phospholipase A2 = Phospholipase A2 (Homo sapiens, UniProt P04054); format: functional;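 note: confirmatory dose-response counterscreen on phospholipase A2, testing hits that came from an ultra-high-throughput screen for ATG4B inhibitors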
[7] = half-maximal inhibitory concentration for glucagon-like peptide-1 release, STC-1 cell line, dose-response (AID 1117345); format: functional, cell-based
[8] = CellTiter-Glo luminescent dose response of DLD-1 viability loss (AID 1117352); format: functional
[9] = Concentration-dependent survival of SW480 colon cancer line, luminescence detection with CellTiter-Glo, half-maximal inhibitory concentration (AID 1117338); format: functional
[10] = cytotoxicity toward Colo320 cells – cell-based, CellTiter-Glo luminescence, IC50, dose response (AID 1117334); format: functional; settings: COLO 320
Cysteine protease ATG4B = molecular target: T3, Cysteine protease ATG4B (Homo sapiens, UniProt Q9Y4P1); format: functional;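 note: Fluorescence-based dose-response confirmation assay measuring inhibition of ATG4B activity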
T3 sequence (Q9Y4P1 whole entry): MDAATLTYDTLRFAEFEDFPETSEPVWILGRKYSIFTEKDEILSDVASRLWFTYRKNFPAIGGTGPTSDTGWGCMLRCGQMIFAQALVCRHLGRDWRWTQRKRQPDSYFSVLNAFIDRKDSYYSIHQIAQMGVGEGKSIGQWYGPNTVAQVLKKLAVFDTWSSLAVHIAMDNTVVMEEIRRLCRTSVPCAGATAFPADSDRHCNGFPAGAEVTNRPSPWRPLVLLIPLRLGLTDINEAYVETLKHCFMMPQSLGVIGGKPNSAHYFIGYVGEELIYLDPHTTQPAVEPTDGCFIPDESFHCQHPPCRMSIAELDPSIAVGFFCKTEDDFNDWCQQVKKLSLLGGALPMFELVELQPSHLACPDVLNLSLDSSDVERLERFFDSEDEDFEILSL

[11] = molecular target: T4, DNA repair protein RAD52 homolog (Homo sapiens, UniProt P43351); format: functional, biochemical
T4 sequence (P43351 whole entry): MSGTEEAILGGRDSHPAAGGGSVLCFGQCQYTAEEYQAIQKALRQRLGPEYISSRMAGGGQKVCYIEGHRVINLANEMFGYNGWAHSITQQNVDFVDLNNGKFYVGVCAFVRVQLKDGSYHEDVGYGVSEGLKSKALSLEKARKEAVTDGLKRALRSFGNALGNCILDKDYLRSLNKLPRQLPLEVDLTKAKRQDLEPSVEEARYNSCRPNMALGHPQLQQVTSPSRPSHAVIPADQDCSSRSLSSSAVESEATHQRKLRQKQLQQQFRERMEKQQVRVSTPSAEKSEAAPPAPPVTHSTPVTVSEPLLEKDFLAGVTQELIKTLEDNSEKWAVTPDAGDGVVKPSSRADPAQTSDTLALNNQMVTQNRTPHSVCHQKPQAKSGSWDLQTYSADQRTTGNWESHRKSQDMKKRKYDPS

[12] = RKO cell viability reduction, dose response, CellTiter-Glo luminescence (AID 1117322); format: functional
[13] = cytotoxicity toward HCT116 cells – cell-based, CellTiter-Glo luminescence, IC50, dose response (AID 1117332); format: functional; settings: HCT-116
[14] = SNU-C1 cell viability reduction, dose response, CellTiter-Glo luminescence (AID 1117323); format: functional, cell-based
[15] = HeLa 4N DNA content increase, dose response, cell-based, IC50 (AID 1117351); format: functional
[16] = HeLa 2N DNA content increase, dose response, cell-based, IC50 (AID 1117349); format: functional
[17] = HeLa cell cytotoxicity, dose response, cytotoxicity control for MgcRacGAP inhibitor project (AID 624300); format: functional
[18] = cytotoxicity toward HT-29 cells – cell-based, CellTiter-Glo luminescence, IC50, dose response (AID 1117330); format: functional
cells = format: functional, cell-based; settings: INS-1E
[19] = TB:CFU starved Measured in Microorganism System Using Imaging - 7108-06_Inhibitor_Dose_DryPowder_Activity_Set2.; format: functional
[20] = A549 cell cytotoxicity, dose response, cytotoxicity control, CellTiter-Glo luminescence, dry powder, set 18 (AID 1117290); format: functional, cell-based
[21] = HepG2 cell cytotoxicity, dose response, cytotoxicity control, CellTiter-Glo luminescence, dry powder, set 20 (AID 1117291); format: functional, cell-based
[22] = Dose-response inhibition of insulin secretion in a rat insulinoma line at 5 mM glucose (AID 1117331); format: functional, cell-based; settings: INS-1E

Chain of Phospholipase A2 (P04054 whole entry): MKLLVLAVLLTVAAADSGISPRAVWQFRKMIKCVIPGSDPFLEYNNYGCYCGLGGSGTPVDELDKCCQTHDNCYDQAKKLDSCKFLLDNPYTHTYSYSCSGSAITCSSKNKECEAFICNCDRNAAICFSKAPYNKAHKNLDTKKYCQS

C(=N\Nc1nc2ccccc2s1)/c1cccs1
IC50 [1]: > 67.5 µM (inactive)
EC50 [2]: > 67.5 µM (inactive)

CCCCCCCCCCCCCCCC[n+]1ccccc1
IC50 [3]: 14.8 µM (inactive)
IC50 [4]: 61.1 µM (active)
AC50 [5]: 4.22 µM (active)
IC50 [6]: 2.29 µM (active)
IC50 (Phospholipase A2): 8.34 µM (active)
IC50 [7]: > 20 µM (inactive)
IC50 [8]: 1.93 µM (active)
IC50 [9]: 1.61 µM (active)
IC50 [10]: 1.64 µM (active)
IC50 (Cysteine protease ATG4B): 7.14 µM (active)
AC50 [11]: 3.79 µM (active)
IC50 [12]: 1.27 µM (active)
IC50 [13]: 1.19 µM (active)
IC50 [14]: 0.934 µM (active)
IC50 [15]: > 10 µM (inactive)
IC50 [16]: 1.25 µM (active)
CC50 [17]: 11.8 µM (active)
IC50 [18]: 2.29 µM (active)
IC50 (cells): > 33.3 µM (inactive)

CCn1c(NC(=O)c2cccnc2O)nc2ccccc21
AbsAC90 [19]: 89.33 µM

COc1ccc(S(=O)(=O)Nc2cc(C(F)(F)F)ccc2N2CCCCC2)cc1
AC50 [20]: 46 µM (active)
AC50 [21]: 33.8 µM (active)

Cc1cc(-n2nc3ccc(Cl)cc3n2)c(O)c(C(C)(C)C)c1 [BUMETRIZOLE]
IC50 [22]: > 33.3 µM (inactive)
